This note sets out measurements from ChEMBL document CHEMBL1130867, “Ascorbic acid-based inhibitors of alpha-amylases” (Bioorg Med Chem Lett, 1998).

In general, inhibition refers to the relative decrease from the control value, in per cent.

Holding throughout (settings): concentration not given here
One test has as its system Bacteria. Description: Inhibition of Alpha-amylase. Details: concentration or dose not given beside the values.
Test [1] deals with T1, Pancreatic alpha-amylase (Homo sapiens) (UniProt P04746).
T1 sequence (whole entry): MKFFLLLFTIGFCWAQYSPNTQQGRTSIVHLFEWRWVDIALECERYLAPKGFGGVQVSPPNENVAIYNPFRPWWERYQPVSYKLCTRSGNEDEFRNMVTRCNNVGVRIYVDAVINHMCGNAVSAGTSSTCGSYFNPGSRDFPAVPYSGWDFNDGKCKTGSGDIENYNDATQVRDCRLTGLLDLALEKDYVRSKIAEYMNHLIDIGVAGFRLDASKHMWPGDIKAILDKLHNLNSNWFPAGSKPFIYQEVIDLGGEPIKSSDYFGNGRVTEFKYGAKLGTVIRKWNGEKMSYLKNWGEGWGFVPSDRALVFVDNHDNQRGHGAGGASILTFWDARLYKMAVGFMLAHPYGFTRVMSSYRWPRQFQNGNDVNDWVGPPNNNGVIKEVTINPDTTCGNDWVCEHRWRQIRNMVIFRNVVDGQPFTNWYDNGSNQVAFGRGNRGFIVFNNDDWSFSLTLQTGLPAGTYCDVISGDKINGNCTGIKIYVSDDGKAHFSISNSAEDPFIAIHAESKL
Description: Inhibition of pancreatic alpha-amylase. Details: concentration or dose not given beside the values.

For test [2], the target named is T2, Alpha-amylase 1A (Homo sapiens) (UniProt P0DUB6).
T2 sequence (whole entry): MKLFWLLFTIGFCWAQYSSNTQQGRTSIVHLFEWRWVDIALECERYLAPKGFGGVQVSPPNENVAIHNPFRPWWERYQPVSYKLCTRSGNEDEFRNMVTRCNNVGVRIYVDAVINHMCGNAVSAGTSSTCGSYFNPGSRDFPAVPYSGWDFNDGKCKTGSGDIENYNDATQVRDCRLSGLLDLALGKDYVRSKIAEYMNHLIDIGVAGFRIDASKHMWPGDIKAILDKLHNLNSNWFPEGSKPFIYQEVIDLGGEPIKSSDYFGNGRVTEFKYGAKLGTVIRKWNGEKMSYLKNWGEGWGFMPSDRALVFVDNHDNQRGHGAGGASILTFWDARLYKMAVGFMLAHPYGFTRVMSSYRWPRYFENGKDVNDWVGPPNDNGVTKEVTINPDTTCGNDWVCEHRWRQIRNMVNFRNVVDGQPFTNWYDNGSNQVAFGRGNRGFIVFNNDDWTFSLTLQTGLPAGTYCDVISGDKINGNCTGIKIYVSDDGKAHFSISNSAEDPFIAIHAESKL
The test can be described thus: Inhibition of salivary alpha-amylase.

In test [3] the test system is Alpha-amylase (Hordeum vulgare). The test can be described thus: Inhibition of malt alpha-amylase. The arrangement: concentration or dose not given beside the values.
For a further test, the system named is Fungi. Description: Inhibition of fungal alpha-amylase. Details: concentration or dose not given beside the values.

As to `CC1(C)OCC(C2OC(=O)C(O)=C2O)O1` (stereo in doubt; 2a), the inhibition in the test on Bacteria amounted to 98%; in test [1] it was 99%; in test [2] it was 88%; in test [3], 90%; in the test on Fungi, 94%.

As for `O=C1O[C@H]([C@@H](O)CO)C(O)=C1O` (stereo in doubt; 1b), the inhibition in the test on Bacteria is 99%; in test [1], 100%; in test [2], 100%; in the test on Fungi, 98%.

In turn, `COC1=C(OC)C(C(COC(C)=O)OC(C)=O)OC1=O` (centres undefined) returned an inhibition in test [3] of 0%.

In test [3], `COC1=C(OC)C(C(O)CO)OC1=O` (centres undefined) yielded an inhibition of 4%.

In test [3], `COC1=C(OC(C)=O)C(C2COC(C)(C)O2)OC1=O` (centres undefined) displayed an inhibition of 9%.

As for `CC(=O)OCC(OC(C)=O)C1OC(O)=C(O)C1=O` (centres undefined), the inhibition in the test on Bacteria came out at 92%; in test [1], 99%; in test [3] it was 89%; with Fungi, 91%.

For `CCCCCCCCCCCCCCCC(=O)OC[C@H](O)[C@H]1OC(=O)C(O)=C1O`, the inhibition in the test on Bacteria was found to be 84%; in test [1], 88%; in test [2], 69%; with Fungi it was 70%.

Take `CCCC(=O)OCC(O)C1OC(=O)C(OC)=C1OC` (centres undefined): the inhibition in test [3] was found to be 10%.

On to `COC1=C(O)C(=O)OC1C(O)CO` (centres undefined), for which the inhibition in test [3] turned out to be 9%.

On to `COC1=C(O)C(=O)OC1C1COC(C)(C)O1` (centres undefined), for which the inhibition amounted to 8% in the test with Bacteria, 0% in test [1], 29% in test [3] and 17% in the test with Fungi.

`COC1=C(OC)C(C2COC(C)(C)O2)OC1=O` (centres undefined) came in with an inhibition in test [3] of 2%.

As for `COC1=C(OC)C(C(O)COC(C)=O)OC1=O` (centres undefined), the inhibition in test [3] was found to be 3%.

For `CC1(C)OCC(C2OC(=O)C(O)=C2O)O1` (stereo in doubt; 2b), the inhibition in the test with Bacteria worked out at 93%; in test [1], 99%; in test [2], 98%; in test [3], 93%; in the test with Fungi, 91%.

The molecule `CCC(=O)OCC(O)C1OC(=O)C(OC)=C1OC` (centres undefined) came in with an inhibition in test [3] of 7%.
